Results reported in ChEMBL document CHEMBL1125481, “N-[4-[[(3,4-dihydro-4-oxo-1,2,3-benzotriazin-6-yl)methyl]amino]benzoyl]-L-glutamic acid, a novel A-ring analogue of 2-desamino-5,8-dideazafolic acid” (J Med Chem, 1992).
Blank lines part the entries; values can stand above or below the molecule they belong to.

Tests used:
[1] = system: L1210; assay: Growth inhibitory activity on mouse L1210 cell culture; type: functional, cell-based
[2] = system: L1210; assay: Growth inhibitory activity on L1210 cell culture in the presence of 5.6 uM thymidine(dThd); type: functional, cell-based; conditions: Mus musculus
[3] = system: L1210; assay: Growth inhibitory activity on L1210 cell culture in the presence of 32 uM hypoxanthine (Hx); type: functional, cell-based; conditions: Mus musculus
[4] = biological target: Thymidylate synthase (Mus musculus, UniProt P07607); assay: Compound was tested for the inhibition of recombinant mouse thymidylate synthase, competitive with 5,10-methylenetetrahydrofolate as variable substrate
[5] = biological target: Thymidylate synthase (Mus musculus) (UniProt P07607); assay: Binding affinity towards thymidylate synthase (TS)
[6] = substrate: Nc1nc(O)c2cc(CNc3ccc(C(=O)NC(CCC(=O)O)C(=O)O)cc3)ccc2n1; assay: (§1) Kinetic characteristic of compound for mouse liver FPGS(in vitro)
[7] = substrate: O=C(O)CCC(NC(=O)c1ccc(NCc2ccc3ncnc(O)c3c2)cc1)C(=O)O; assay: as §1
[8] = substrate: O=C(O)CCC(NC(=O)c1ccc(NCc2ccc3nnnc(O)c3c2)cc1)C(=O)O

Chain of Thymidylate synthase (Mus musculus) (P07607 whole entry, looked up): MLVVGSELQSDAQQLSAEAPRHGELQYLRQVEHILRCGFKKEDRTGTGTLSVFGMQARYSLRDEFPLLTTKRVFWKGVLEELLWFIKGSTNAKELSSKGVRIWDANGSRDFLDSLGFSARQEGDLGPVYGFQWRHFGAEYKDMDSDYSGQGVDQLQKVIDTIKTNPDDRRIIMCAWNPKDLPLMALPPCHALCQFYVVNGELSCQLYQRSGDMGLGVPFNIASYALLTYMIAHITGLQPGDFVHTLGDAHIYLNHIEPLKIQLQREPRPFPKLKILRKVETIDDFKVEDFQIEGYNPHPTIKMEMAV
Chain of Thymidylate synthase (P07607 whole entry): as the sequence (P07607 whole entry, looked up) above

Molecule: Nc1nc(O)c2cc(CNc3ccc(C(=O)NC(CCC(=O)O)C(=O)O)cc3)ccc2n1 (stereo not given) [DIDEAZAFOLATE]
IC50 [1]: 2700 nM

B1: Folylpolyglutamate synthase, mitochondrial (Mus musculus), P48760 (protein)
chain: MSWARSRLCSTLSLAAVSARGATTEGAARRGMSAWPAPQEPGMEYQDAVRTLNTLQTNASYLEQVKRQRSDPQAQLEAMEMYLARSGLQVEDLNRLNIIHVTGTKGKGSTCAFTERILRNYGLKTGFFSSPHMVQVRERIRINGKPISPELFTKHFWCLYNQLEEFKDDSHVSMPSYFRFLTLMAFHVFLQEKVDLAVVEVGIGGAFDCTNIIRKPVVCGVSSLGIDHTSLLGDTVEKIAWQKGGIFKPGVPAFTVVQPEGPLAVLRDRAQQIGCPLYLCPPLEALEEVGLPLSLGLEGAHQRSNAALALQLAHCWLERQDHQDIQELKVSRPSIRWQLPLAPVFRPTPHMRRGLRDTVWPGRTQILQRGPLTWYLDGAHTTSSVQACVHWYRQSLERSKRTDGGSEVHILLFNSTGDRDSAALLKLLQPCQFDYAVFCPNVTEVSSIGNADQQNFTVTLDQVLLRCLQHQQHWNGLAEKQASSNLWSSCGPDPAGPGSLLLAPHPPQPTRTSSLVFSCISHALLWISQGRDPIFQPQSLPRNLLNHPTANSGASILREAAAIHVLVTGSLHLVGGVLKLLDPSMSQ
Km [6]: 6.4 µM | Km [7]: 4.8 µM | Km [8]: 28 µM

Further lines, results first:

IC50 [1]: 430 nM
Molecule: O=C(O)CCC(NC(=O)c1ccc(NCc2ccc3ncnc(O)c3c2)cc1)C(=O)O (stereo not given)

IC50 [2]: 890 nM | IC50 [1]: 520 nM | IC50 [3]: 970 nM | Ki [4]: 2300 nM | Ki [5]: 2300 nM
Molecule: O=C(O)CCC(NC(=O)c1ccc(NCc2ccc3nnnc(O)c3c2)cc1)C(=O)O (stereo not given)
